The first assay deals with Human breast cancer cells MCF-7. Description: Proliferation of MCF-7 breast cancer cells (MTT detection method). In kind it is cell-based. As to conditions: MCF-7 cells, 48 h incubation with drug, read-out: IC50, inhibition on the proliferation of MCF-7 breast cancer cells. The procedure: The method described in Journal of Medicinal Chemistry. 1997. 40. 1407-1416 has been used and slightly modified. Human breast cancer cells MCF-7, purchased from Nanjing Keygen Biotechnology Inc. MCF-7 cells were incubated in RPMI1640 medium (containing 10% calf serum, 100 U/ml of penicillin and 100 μg/ml of streptomycin) in a 37° C. incubator with 5% CO2. The medium was replaced once about two days and cells were subcultured once every 3-4 days. In the subculturing, the old medium was discarded and the culture was washed twice with D-hanks (for washing off the phenol red in the medium to eliminate the influence of phenol red on the digestion effect of trypsin). Then, a small amount of 0.25% trypsin (25 mg trypsin, 100 ml D-hanks) was added and the contents were paved in the bottle bottom smoothly. […] Trypsin was discarded and the cells were washed with D-hanks, then fresh medium was added and mixed by blowing. The cultures were put into new culture flasks and cultured continuously. After cell count, a small volume of cell suspension was taken and mixed with 0.4% trypan blue in the same volume by blowing with a straw. A little mixture (15 μl-20 μl) was taken and dropped into the interspace between the counting plate and the coverslip without bubbles. […] Dead cells can be stained by trypan blue, while living cells cannot. The counting plate was moved so as to see the counting squares, then unstained cells in four diagonal grids were counted. The cells counted include those on the right line and the top line but not those on the bottom line and the left line. The number of cells/ml=the number of cells in 25% grid×10^4. […] The control group was that in which the anticancer drug was replaced with the same volume of medium and the blank group is 200 μl medium. After incubating for 48 h, 5 mg/ml MTT was added in 20 μl per well and the cultures were further incubated for 4 h. Then, the liquid was suck out carefully and 150 μl of DMSO was added per well. OD values of all wells were measured in 570 nm and the inhibition rate on the cell proliferation and values of IC50 were calculated.
For orientation: Tetrazolium dyes change colour on reduction, which living cells bring about.
Take `O=C1c2ccccc2-c2c1c1ccccc1c(=O)n2-c1ccc(OCCN2CCCC2)cc1` [Ii, 6-(4-(2-pyrrolidinylethoxy)phenyl)-5H-indeno[1,2-c]isoquinoline-5,11(6H)-diketone]: the IC50 was determined as 11.3 µM.

Consider `O=C1c2ccccc2-c2c1c1ccccc1c(=O)n2-c1ccc(OCCCN2CCCCC2)cc1` [Ib, 6-(4-(3-piperidinylpropoxy)phenyl)-5H-indeno[1,2-c]isoquinoline-5,11(6H)-diketone], for which the IC50 turned out to be 10.9 µM.

For the molecule `CCN(CC)CCCOc1ccc(-n2c3c(c4ccccc4c2=O)C(=O)c2ccccc2-3)cc1` [If, 6-(4-(3-diethylaminopropoxy)phenyl)-5H-indeno[1,2-c]isoquinoline-5,11(6H)-diketone], the IC50 was 8.52 µM.

With `CC(C)N(CCOc1ccc(-n2c3c(c4ccccc4c2=O)C(=O)c2ccccc2-3)cc1)C(C)C` [Ik, 6-(4-(2-diisopropylaminoethoxy)phenyl)-5H-indeno[1,2-c]isoquinoline-5,11(6H)-diketone], the IC50 was determined as 79.9 µM.

With `CN(C)CCCOc1ccc(-n2c3c(c4ccccc4c2=O)C(=O)c2ccccc2-3)cc1` [Id, 6-(4-(3-dimethylaminopropoxy)phenyl)-5H-indeno[1,2-c]isoquinoline-5,11(6H)-diketone], the IC50 amounted to 27.9 µM.

For `O=C1c2ccccc2-c2c1c1ccccc1c(=O)n2-c1ccc(OCCCN2CCCC2)cc1` [Ij, 6-(4-(3-pyrrolidinylpropoxy)phenyl)-5H-indeno[1,2-c]isoquinoline-5,11(6H)-diketone], the IC50 was determined as 24.7 µM.

Regarding `CN1CCN(CCOc2ccc(-n3c4c(c5ccccc5c3=O)C(=O)c3ccccc3-4)cc2)CC1` [Ig, 6-(4-(2-(4-methylpiperazinyl)ethoxy)phenyl)-5H-indeno[1,2-c]isoquinoline-5,11(6H)-diketone], the IC50 was 5.82 µM.

Regarding `CN(C)CCOc1ccc(-n2c3c(c4ccccc4c2=O)C(=O)c2ccccc2-3)cc1` [Ic, 6-(4-(2-dimethylaminoethoxy)phenyl)-5H-indeno[1,2-c]isoquinoline-5,11(6H)-diketone], the IC50 is 2.13 µM.

Take `CN1CCN(CCCOc2ccc(-n3c4c(c5ccccc5c3=O)C(=O)c3ccccc3-4)cc2)CC1` [Ih, 6-(4-(3-(4-methylpiperazinyl)propoxy)phenyl)-5H-indeno[1,2-c]isoquinoline-5,11(6H)-diketone]: the IC50 was found to be 5.89 µM.

Take `O=C1c2ccccc2-c2c1c1ccccc1c(=O)n2-c1ccc(OCCN2CCCCC2)cc1` [Ia, 6-(4-(2-piperidinylethoxy)phenyl)-5H-indeno[1,2-c]isoquinoline-5,11(6H)-diketone]: the IC50 was found to be 9.55 µM.

For the molecule `CCN(CC)CCOc1ccc(-n2c3c(c4ccccc4c2=O)C(=O)c2ccccc2-3)cc1` [Ie, 6-(4-(2-diethylaminoethoxy)phenyl)-5H-indeno[1,2-c]isoquinoline-5,11(6H)-diketone], the IC50 is 7.8 µM.

The next assay concerns H460 human lung cancer cells. Description: Proliferation experiment of H460 human lung cancer cells. In kind it is cell-based.
Details: not given
The procedure: Meanwhile, the proliferation experiment of H460 human lung cancer cells was also conducted.
Regarding `CCN(CC)CCCOc1ccc(-n2c3c(c4ccccc4c2=O)C(=O)c2ccccc2-3)cc1` [If, 6-(4-(3-diethylaminopropoxy)phenyl)-5H-indeno[1,2-c]isoquinoline-5,11(6H)-diketone], the IC50 is 0.63 µM.

Values taken from patent publication US8664238B2, “Indenoisoquinolinone derivatives, manufacturing method and medical use thereof” (China Pharmaceutical University, priority 2009, dated 2014).
